From patent EP4800013A1, “PARG INHIBITOR” (Shanghai Qilu Pharmaceutical Research and Development …, priority 2023, dated 2025)

Molecular target: T1, PARG (Homo sapiens, UniProt Q86W56)
T1 construct: made in house
Experiment: Enzymatic inhibitory activity against PARG, HTRF assay
Format: biochemical
Details: HTRF; PARylated PARP1 protein as substrate; 60 minutes at room temperature; read-out: IC50 against PARG enzyme
How it was run: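 Purified PARG pre-incubated with compounds (top 10 µM, 3- to 5-fold dilutions, duplicates) 15 min at room temperature, then PARylated PARP1 substrate added for 60 min in Tris pH 7.4 buffer with DTT, EDTA/EGTA, KCl. HTRF (His-Tb/SA-XL665) read-out; IC50 by four-parameter logistic fit, normalised to DMSO and control-inhibitor wells.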

T1 sequence (Q86W56 whole entry): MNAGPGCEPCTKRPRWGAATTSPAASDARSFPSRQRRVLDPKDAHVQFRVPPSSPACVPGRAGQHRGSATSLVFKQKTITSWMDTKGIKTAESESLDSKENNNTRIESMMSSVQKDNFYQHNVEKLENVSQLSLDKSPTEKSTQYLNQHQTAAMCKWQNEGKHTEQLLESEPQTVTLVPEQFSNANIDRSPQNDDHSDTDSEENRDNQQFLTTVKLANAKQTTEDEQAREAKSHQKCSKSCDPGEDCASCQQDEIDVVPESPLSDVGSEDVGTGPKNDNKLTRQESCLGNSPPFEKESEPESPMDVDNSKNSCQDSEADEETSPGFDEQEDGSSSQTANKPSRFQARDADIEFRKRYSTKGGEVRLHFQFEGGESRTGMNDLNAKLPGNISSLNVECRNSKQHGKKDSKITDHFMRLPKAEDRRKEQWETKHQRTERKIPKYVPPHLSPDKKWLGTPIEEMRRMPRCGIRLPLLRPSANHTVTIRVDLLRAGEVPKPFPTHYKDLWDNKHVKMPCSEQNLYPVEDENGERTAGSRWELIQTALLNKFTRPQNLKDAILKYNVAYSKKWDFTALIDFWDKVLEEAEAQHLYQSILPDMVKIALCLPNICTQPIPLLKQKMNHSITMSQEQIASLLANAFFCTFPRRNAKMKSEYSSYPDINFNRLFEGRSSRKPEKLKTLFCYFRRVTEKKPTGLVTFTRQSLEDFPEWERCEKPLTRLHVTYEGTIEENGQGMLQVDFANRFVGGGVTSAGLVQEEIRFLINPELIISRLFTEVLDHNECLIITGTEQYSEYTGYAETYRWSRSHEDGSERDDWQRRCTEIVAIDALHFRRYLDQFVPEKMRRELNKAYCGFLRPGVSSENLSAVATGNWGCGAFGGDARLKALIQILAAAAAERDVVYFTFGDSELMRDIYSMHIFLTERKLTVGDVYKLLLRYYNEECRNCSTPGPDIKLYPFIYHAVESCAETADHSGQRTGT

Row | Compound | IC50
1 | C[C@H]1CN(c2cc(S(=O)(=O)NC3(C)CC3)cc3c2n2ncnc2n3-c2nnc(C(F)F)s2)C[C@H](C)N1 [Compound 065M] | 1.4 nM
2 | C[C@H]1CN(c2cc(S(=O)(=O)NC3(C)CC3)cc3c2nc([C@@H]2CCCO2)n3-c2nnc(C(F)F)s2)C[C@H](C)N1 [Compound 077B2] | 1.6 nM
3 | C[C@H]1CN(c2cc(S(=O)(=O)NC3(C)CC3)cn3c(-c4nnc(C(F)F)s4)c([C@@H]4CCCO4)nc23)C[C@H](C)N1 [Compound 080B2] | 0.4 nM
4 | CC1(NS(=O)(=O)c2cc(N3CCNCC3)c3ncn(-c4nnc(C(F)F)s4)c3c2)CC1 [Compound B001] | 44.7 nM
5 | CC(C)C(=O)N1CCN(c2cc(S(=O)(=O)NC3(C)CC3)cc3c2ncn3-c2nnc(C(F)F)s2)CC1 [Compound B002] | 11.6 nM
6 | CN(C)C(=O)N1CCN(c2cc(S(=O)(=O)NC3(C)CC3)cc3c2ncn3-c2nnc(C(F)F)s2)CC1 [Compound B003] | 10.2 nM
7 | CC(C)C(=O)N1CCN(c2cc(S(=O)(=O)NC3(C#N)CC3)cc3c2ncn3-c2nnc(C(F)F)s2)CC1 [Compound B010] | 31.4 nM
8 | CN(C)C(=O)N1CCN(c2cc(S(=O)(=O)NC3(C#N)CC3)cc3c2ncn3-c2nnc(C(F)F)s2)CC1 [Compound B011] | 9.9 nM
9 | N#CC1(NS(=O)(=O)c2cc(N3CCN(C(=O)N4CCCC4)CC3)c3ncn(-c4nnc(C(F)F)s4)c3c2)CC1 [Compound B013] | 21.3 nM
10 | CC(C)(F)C(=O)N1CCN(c2cc(S(=O)(=O)NC3(C#N)CC3)cc3c2ncn3-c2nnc(C(F)F)s2)CC1 [Compound B014] | 31.4 nM
11 | C[C@H]1CN(c2cc(S(=O)(=O)NC3(C#N)CC3)cc3c2ncn3-c2nnc(C(F)F)s2)C[C@H](C)N1 [Compound B016] | 21.2 nM
12 | C[C@H]1CN(c2cc(S(=O)(=O)NC3(C#N)CC3)cc3c2ncn3-c2nnc(C(F)F)s2)C[C@H](C)N1C(=O)N(C)C [Compound B017] | 31.5 nM
13 | COc1nc2c(N3CCN(C(=O)N(C)C)CC3)cc(S(=O)(=O)NC3(C#N)CC3)cc2n1-c1nnc(C(F)F)s1 [Compound B019] | 6.3 nM
14 | COc1nc2c(N3CCN(C(=O)C(C)C)CC3)cc(S(=O)(=O)NC3(C#N)CC3)cc2n1-c1nnc(C(F)F)s1 [Compound B020] | 19.8 nM
15 | Cc1nc2c(N3CCN(C(=O)N(C)C)CC3)cc(S(=O)(=O)NC3(C#N)CC3)cc2n1-c1nnc(C(F)F)s1 [Compound B021] | 25.1 nM
16 | CN(C)C(=O)N1CCN(c2cc(S(=O)(=O)NC3(C)CC3)cc3c2nnn3-c2nnc(C(F)F)s2)CC1 [Compound C002] | 48.2 nM

Test system: KURAMOCHI cells
Experiment: Inhibition of proliferation of KURAMOCHI cells (CellTiter-Glo, intracellular ATP)
Format: cell-based
Details: 168 h, incubated for 7 days, read-out: IC50 against KURAMOCHI cells
How it was run: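 KURAMOCHI cells seeded at 4000/well, incubated overnight, then treated with 9-point 1:4 compound series from 10 µM (0.5% DMSO) for 7 days at 37°C, 5% CO2. Viability read by CellTiter-Glo luminescence; inhibition normalised to medium-only (100%) and DMSO (0%) controls, IC50 from variable-slope four-parameter fit.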

Row | Compound | IC50
17 | C[C@H]1CN(c2cc(S(=O)(=O)NC3(C)CC3)cc3c2n2ncnc2n3-c2nnc(C(F)F)s2)C[C@H](C)N1 [Compound 065M] | 3 nM
18 | C[C@H]1CN(c2cc(S(=O)(=O)NC3(C)CC3)cc3c2nc([C@@H]2CCCO2)n3-c2nnc(C(F)F)s2)C[C@H](C)N1 [Compound 077B2] | 3 nM
19 | C[C@H]1CN(c2cc(S(=O)(=O)NC3(C)CC3)cn3c(-c4nnc(C(F)F)s4)c([C@@H]4CCCO4)nc23)C[C@H](C)N1 [Compound 080B2] | 0.6 nM
20 | CC1(NS(=O)(=O)c2cc(N3CCNCC3)c3ncn(-c4nnc(C(F)F)s4)c3c2)CC1 [Compound B001] | 53 nM
21 | CC(C)C(=O)N1CCN(c2cc(S(=O)(=O)NC3(C)CC3)cc3c2ncn3-c2nnc(C(F)F)s2)CC1 [Compound B002] | 16 nM
22 | CN(C)C(=O)N1CCN(c2cc(S(=O)(=O)NC3(C)CC3)cc3c2ncn3-c2nnc(C(F)F)s2)CC1 [Compound B003] | 16 nM
23 | CC(C)C(=O)N1CCN(c2cc(S(=O)(=O)NC3(C#N)CC3)cc3c2ncn3-c2nnc(C(F)F)s2)CC1 [Compound B010] | 59 nM
24 | CN(C)C(=O)N1CCN(c2cc(S(=O)(=O)NC3(C#N)CC3)cc3c2ncn3-c2nnc(C(F)F)s2)CC1 [Compound B011] | 32 nM
25 | N#CC1(NS(=O)(=O)c2cc(N3CCN(C(=O)N4CCCC4)CC3)c3ncn(-c4nnc(C(F)F)s4)c3c2)CC1 [Compound B013] | 53 nM
26 | CC(C)(F)C(=O)N1CCN(c2cc(S(=O)(=O)NC3(C#N)CC3)cc3c2ncn3-c2nnc(C(F)F)s2)CC1 [Compound B014] | 43 nM
27 | C[C@H]1CN(c2cc(S(=O)(=O)NC3(C#N)CC3)cc3c2ncn3-c2nnc(C(F)F)s2)C[C@H](C)N1 [Compound B016] | 74 nM
28 | C[C@H]1CN(c2cc(S(=O)(=O)NC3(C#N)CC3)cc3c2ncn3-c2nnc(C(F)F)s2)C[C@H](C)N1C(=O)N(C)C [Compound B017] | 20 nM
29 | COc1nc2c(N3CCN(C(=O)N(C)C)CC3)cc(S(=O)(=O)NC3(C#N)CC3)cc2n1-c1nnc(C(F)F)s1 [Compound B019] | 19 nM
30 | COc1nc2c(N3CCN(C(=O)C(C)C)CC3)cc(S(=O)(=O)NC3(C#N)CC3)cc2n1-c1nnc(C(F)F)s1 [Compound B020] | 59 nM
31 | Cc1nc2c(N3CCN(C(=O)N(C)C)CC3)cc(S(=O)(=O)NC3(C#N)CC3)cc2n1-c1nnc(C(F)F)s1 [Compound B021] | 51 nM
32 | CN(C)C(=O)N1CCN(c2cc(S(=O)(=O)NC3(C)CC3)cc3c2nnn3-c2nnc(C(F)F)s2)CC1 [Compound C002] | 25 nM

Test system: not listed separately
Experiment: Pharmacokinetic evaluation in BALB/c nude mice (PO)
Format: in vivo
Details: mouse, in vivo, 30 mg/kg
Protocol: Using mice as test animals, the compounds of the present disclosure were administered via intravenous bolus and oral injection. Plasma samples were collected at specific time points. Compound concentrations in plasma were determined by LC-MS/MS, and PK parameters were calculated to characterize the pharmacokinetic behavior of the compounds of the present disclosure in plasma.
BALB/c nude mice, female, supplied by Jiangsu GemPharmatech Co., Ltd.
Dosing regimen for BALB/c nude mice: The PO (oral) experimental group consisted of 3 mice, which were administered at a dose of 30 mg/kg and a volume of 10 mL/kg. The dosing vehicle was 5% (v/v) DMSO/10% (v/v) Solutol/85% (v/v) saline.
Following administration, 0.025 mL of blood was collected via venipuncture at the following time points: 0.0833 (IV), 0.25, 0.5, 1, 2, 4, 8, and 24 hours. Blood samples were collected into EDTA-K2 tubes and centrifuged at 4°C and 2000 g for 10 minutes to separate plasma, which was stored at -80°C.
Mouse plasma processing: • 1) 15 µL of plasma was mixed with 200 µL of acetonitrile for protein precipitation. The mixture was vortexed and centrifuged for 15 minutes. • 2) The supernatant after processing was diluted with water and analyzed by LC/MS/MS to determine the concentration of the test compound.
Pharmacokinetic parameters were calculated using WinNonlin 6.1. Specifically, Cmax represents maximum plasma concentration, CL represents clearance, Vss represents volume of distribution at steady state, T1/2 represents terminal elimination half-life, MRTInf represents mean residence time, AUC represents area under the plasma concentration-time curve, and F represents bioavailability. Table 18: Pharmacokinetic parameters of the compounds of the present disclosure in CD-1 mice

Row | Compound | AUC | Cmax | MRT inf | half-life
33 | C[C@H]1CN(c2cc(S(=O)(=O)NC3(C)CC3)cn3c(-c4nnc(C(F)F)s4)c([C@@H]4CCCO4)nc23)C[C@H](C)N1 [Compound 080B2] | 8.35 µM·h | 1870 nM | 3.27 h | 2.45 h

Test system: KURAMOCHI ovarian cancer xenograft model
Experiment: not given
Details: mouse, in vivo, po

Row | Compound | tolerability in mice (in words)
34 | C[C@H]1CN(c2cc(S(=O)(=O)NC3(C)CC3)cc3c2nc([C@@H]2CCCO2)n3-c2nnc(C(F)F)s2)C[C@H](C)N1 [Compound 077B2] | good tolerability

Test system: KURAMOCHI ovarian cancer xenograft model
Experiment: In vivo efficacy study in KURAMOCHI ovarian cancer xenograft model
Details: KURAMOCHI xenograft, oral administration
From the text: NOD SCID mice, female, SPF grade, purchased from Beijing Anikeepter Biotech Co., Ltd.
KURAMOCHI cells, purchased from JCRB.
The culture medium was changed weekly. […] Tumor cells in the logarithmic growth phase were used for in vivo implantation.
A total of 35 mice were inoculated: 35 mice for the efficacy study; 15 mice for the PK/PD study; 10 mice remaining after grouping. When the tumor volume reached approximately 150 to 200 mm^3, the mice were grouped for dosing to initiate the efficacy study. Specifically, they were divided into 7 groups, with 5 mice per group. The remaining animals were grouped for dosing when the tumor volume reached approximately 250 mm^3.
b. Treatment was initiated after grouping, with a dosing volume of 10 µL/g body weight via oral administration (PO). Animals were weighed daily before dosing and administered once daily for 21 consecutive days. Tumor diameters were measured twice weekly. c. Tumor volume (TV) was measured twice weekly to monitor changes in tumor size and growth rate. Tumor volume was calculated as: V = 1/2 × a × b^2, where a and b represent tumor length and tumor width, respectively. The growth inhibitory effect of compounds on tumor tissue was evaluated using tumor growth inhibition (TGI (%)). […] Data for both the treatment group and the negative control group were collected on the same day. d. The mice were weighed during tumor measurements. The relationship between changes in body weight and time of treatment was recorded. The survival and health status of the mice, including general conditions such as activity level and food intake during the dosing period, were also observed. […] Treatment was resumed when the body weight recovered to within 10% of baseline. […] Nutritional gel supplementation was provided during treatment discontinuation. e. At the study endpoint, the mice were euthanized.

Row | Compound | tolerability in mice (in words) | tumor growth inhibition (in words)
35 | C[C@H]1CN(c2cc(S(=O)(=O)NC3(C)CC3)cc3c2n2ncnc2n3-c2nnc(C(F)F)s2)C[C@H](C)N1 [Compound 065M] | good tolerability | significantly inhibited tumor growth
36 | C[C@H]1CN(c2cc(S(=O)(=O)NC3(C)CC3)cc3c2nc([C@@H]2CCCO2)n3-c2nnc(C(F)F)s2)C[C@H](C)N1 [Compound 077B2] |  | significantly inhibited tumor growth

Same assay, conditions: PO, 30 mg/kg, BID × 16 days

Row | Compound | TGI (%)
37 | C[C@H]1CN(c2cc(S(=O)(=O)NC3(C)CC3)cc3c2nc([C@@H]2CCCO2)n3-c2nnc(C(F)F)s2)C[C@H](C)N1 [Compound 077B2] | 127%

Same assay, conditions: PO, 30 mg/kg, BID × 16 days; Mean ± SEM

Row | Compound | Tumor volume (mm^3)
38 | C[C@H]1CN(c2cc(S(=O)(=O)NC3(C)CC3)cc3c2nc([C@@H]2CCCO2)n3-c2nnc(C(F)F)s2)C[C@H](C)N1 [Compound 077B2] | 61 ± 9 mm^3

Same assay, conditions: PO, 30 mg/kg, QD × 16 days

Row | Compound | TGI (%)
39 | C[C@H]1CN(c2cc(S(=O)(=O)NC3(C)CC3)cc3c2n2ncnc2n3-c2nnc(C(F)F)s2)C[C@H](C)N1 [Compound 065M] | 127%

Same assay, conditions: PO, 30 mg/kg, QD × 16 days; Mean ± SEM

Row | Compound | Tumor volume (mm^3)
40 | C[C@H]1CN(c2cc(S(=O)(=O)NC3(C)CC3)cc3c2n2ncnc2n3-c2nnc(C(F)F)s2)C[C@H](C)N1 [Compound 065M] | 62 ± 6 mm^3

Same assay, conditions: PO, 100 mg/kg, QD × 16 days

Row | Compound | TGI (%)
41 | C[C@H]1CN(c2cc(S(=O)(=O)NC3(C)CC3)cc3c2nc([C@@H]2CCCO2)n3-c2nnc(C(F)F)s2)C[C@H](C)N1 [Compound 077B2] | 127%

Same assay, conditions: PO, 100 mg/kg, QD × 16 days; Mean ± SEM

Row | Compound | Tumor volume (mm^3)
42 | C[C@H]1CN(c2cc(S(=O)(=O)NC3(C)CC3)cc3c2nc([C@@H]2CCCO2)n3-c2nnc(C(F)F)s2)C[C@H](C)N1 [Compound 077B2] | 57 ± 10 mm^3
